Results published in patent publication US20040110727A1, “Aldehyde-releasing compounds” (priority 2000, published 2004).
Read-outs that look alike come from different tables or passages of the source.

Key:
[1] = test system: genomic DNA of IMR-32 cells; conditions: for adduct levels compared to Adriamycin alone / relative effectiveness in activating adduct formation: 4 μM [14C] Adriamycin simultaneously with 100 μM aldehyde-releasing compound
Experimental: IMR-32 cells were seeded into 3.5 cm petri dishes at a density of 7.5×10^5 cells/dish 24 hr prior to exposure to 41M [^14C]-Adriamycin for 4 hr. In other treatments 100 μM AN-9 was added at varying times: 2 hr prior to Adriamycin addition (−2); simultaneously (O); and 2 hr after Adriamycin (2). Cells were harvested, and the genomic DNA was isolated. Samples were then extracted twice with phenol and once with chloroform, and DNA was selectively precipitated from RNA by ammonium acetate precipitation. DNA pellets were resuspended in 100 μL TE buffer, and the concentration determined spectrophotometically at 260 nm. Aliquots of the genomic DNA (50 μL) were each added to 1 mL of Optiphase Hisafe scintillation cocktail, and the incorporation of [^14C]-labelled drug into the DNA was monitored using a Wallac 1410 Liquid Scintillation Counter.
IMR-32 cells were exposed to 6 μM [^14C]-Adriamycin alone (Adr) for 4 hr, or together with 125 μl AN-9 at varying times: 16 hr prior (−16), 2 hr prior (−2), simultaneously (0), and 2 hr after Adriamycin addition (2). […] Genomic DNA was extracted from the cells, and incorporation of radiolabelled drug was determined by scintillation counting to determine the level of [^14C] adducts per 10 kb.
Therefore, IMR-32 cells were treated with 4 μM [^14C] Adriamycin and were simultaneously treated with 100 μM of selected aldehyde-releasing compound. Cells were harvested, genomic DNA was extracted and scintillation analyses were performed as described above.
To test whether a greater fraction of Adriamycin can be utilized for adduct formation when the amount of available formaldehyde is increased, the concentration dependence of AN-9 was investigated. IMR-32 cells were treated with [^14C] Adriamycin at a constant concentration of 4 μM. AN-9 was added 2 hr after Adriamycin at concentrations ranging from 4 μM (1:1) to 500 μM (1:125), and the treatment continued for a further 2 hr. Cells were harvested, DNA was extracted and samples were analysed for incorporation of [^14C].
Adducts (lesions/10 kb) were determined by incubating IMR-32 cells in the presence of 2 μM [^14C]Adriamycin for 2 hr. followed by an additional 2 hr in the presence or absence of 100 μM AN-9. Semi-carbazide addition was at the same time as Adriamycin (ie 2 hr before AN-9). However, values in parentheses indicate that semi-carbazide addition was at the same time as AN-9 treatment (ie 2 hr after Adriamycin).
Adriamycin for 4 hr. These were simultaneously incubated with the indicated aldehyde-releasing compound at a final concentration of 100 μM. Samples were harvested as indicated previously and DNA was assessed for incorporation of radioactively labelled Adriamycin.

HL-60 cells = conditions: cited from earlier work
[2] = test system: mitochondrial genome and DHFR gene of IMR-32 cells; test: Gene-specific Southern hybridisation assay of DNA adducts / virtual crosslinks; type: cell-based, human; conditions: for level of DNA adducts (percentage of double stranded DNA): IMR-32, Adriamycin alone, or Adriamycin with 25-fold excess of AN-9 (added 2 hr after or 2 hr before)
Experimental: We sought to investigate the level of DNA adducts formed under various treatment conditions, since we speculated that the peculiar effectiveness of the Adriamycin/AN-9 combination might be due to increased levels of DNA damage in the form of DNA adducts. IMR-32 human neuroblastoma cells (A and B) and MCF-7 human breast adenocarcinoma cells (C and D) were treated with Adriamycin for 2 hr ([…] as shown) followed by a further 2 hr incubation with a 25-fold excess of AN-9 (▪), or treated with AN-9 for 2 hr followed by a further 4 hr incubation with Adriamycin (□). Genomic DNA was isolated using mild conditions (Cutts et al., 2001) and subjected to gene-specific Southern hybridisation analysis. For detection of the mitochondrial genome, DNA was restriction digested with BamHI, and unreacted or intercalated drug was removed by phenol/chloroform extraction and ethanol precipitation. Samples were resuspended in 60% formamide and heat denatured at 60° C. for 5 min. Samples were resolved electrophoretically through 0.8% agarose, transferred to nylon membranes and probed with mitochondrial RNA. The percentage of double stranded DNA was calculated by phosphorimage analysis; this correlates with adduct formation in the mitochondrial genome (A and C), since the adducts behave functionally as virtual interstrand crosslinks (Zeman et al., 1998; Cullinane et al., 2000). For detection of the DHFR gene, DNA was digested with HindIII and processed as described above; however, randomly primed DHFR DNA was used as the probe for Southern analysis (B and D). Data were derived from each of two separate blots of two biological experiments, and the values are represented as the mean±SE. […] This provides a biochemical basis for the synergistic/antagonistic cytotoxicity relationship.
It was known that the formation of Adriamycin adducts was highly time-dependent. To confirm that the adducts behave as classical Adriamycin adducts, and also to investigate the optimal conditions for adduct formation, a time course study was initiated. IMR-32 cells were treated with a combination of 4 μM Adriamycin and 100 μM AN-9 for 0-8 hr as described above. Phosphorimage analysis was used to quantitate the time-dependent formation of adducts in the mitochondrial genome (A) and DHFR gene (B).
In order to gain some understanding as to why synergy was greatest when AN-9 was added at the same time as, or after, Adriamycin, a time course of addition of AN-9 was studied. IMR-32 cells were exposed to 4 μM Adriamycin for 4 hr. […] Adduct/crosslinking levels are shown in FIG. 3 for both mitochondrial (A) and nuclear (B) DNA, using probes for mtDNA and the DHFR gene respectively. Phosphorimage analysis was used to quantitate the fraction of DS DNA, a measure of adduct formation, for each treatment condition. Adduct formation fluctuated greatly, and depended on a relatively small time frame within which AN-9 was added to cells. […] This enabled us to predict that if AN-9 was added shortly after Adriamycin in cytotoxicity assays, within say approximately 2 hr, then the Combination Index obtained would be even better than when the drugs were added simultaneously.
IMR-32 cells were exposed to Adriamycin (6 μm) for 4 hr, and AN-9 (125 μM) was added at varying times from 24 hr prior to Adriamycin addition (−24) to 2 hr after Adriamycin. Genomic DNA was extracted from cells and then processed for Southern analysis. Phosphorimage analysis was used for quantitation of the adducts in mtDNA (A) and the DHFR gene (B), and the results are shown in FIG. 4.

[3] = test system: mitochondrial genome and DHFR gene of MCF-7 cells; test: as above; type: cell-based, human; conditions: Adriamycin alone, or Adriamycin with 25-fold excess of AN-9 (added 2 hr after or 2 hr before)
Experimental: We sought to investigate the level of DNA adducts formed under various treatment conditions, since we speculated that the peculiar effectiveness of the Adriamycin/AN-9 combination might be due to increased levels of DNA damage in the form of DNA adducts. IMR-32 human neuroblastoma cells (A and B) and MCF-7 human breast adenocarcinoma cells (C and D) were treated with Adriamycin for 2 hr ([…] as shown) followed by a further 2 hr incubation with a 25-fold excess of AN-9 (▪), or treated with AN-9 for 2 hr followed by a further 4 hr incubation with Adriamycin (□). Genomic DNA was isolated using mild conditions (Cutts et al., 2001) and subjected to gene-specific Southern hybridisation analysis. For detection of the mitochondrial genome, DNA was restriction digested with BamHI, and unreacted or intercalated drug was removed by phenol/chloroform extraction and ethanol precipitation. Samples were resuspended in 60% formamide and heat denatured at 60° C. for 5 min. Samples were resolved electrophoretically through 0.8% agarose, transferred to nylon membranes and probed with mitochondrial RNA. The percentage of double stranded DNA was calculated by phosphorimage analysis; this correlates with adduct formation in the mitochondrial genome (A and C), since the adducts behave functionally as virtual interstrand crosslinks (Zeman et al., 1998; Cullinane et al., 2000). […]

IMR-32 cells = test: Cell viability assay, relative survival with semi-carbazide; type: cell-based, human; conditions: IC50 relative to Adriamycin alone; 72 hr; presence or absence of 50 μM AN-9; no semi-carbazide
Experimental: To obtain data representing relative survival, cells were seeded at a density of 1×10^4 per well and exposed to increasing concentrations of Adriamycin in the presence or absence of 50 μM AN-9 and/or semi-carbazide (0.25, 0.5 or 1.0 mM as indicated) for 72 hr. IC50 values for various combinations are shown as relative survival compared to Adriamycin alone. […] Overall, the critical role of formaldehyde was confirmed by reversal of formaldehyde-mediated effects by semi-carbazide, which reduced adduct formation and also abolished the cytotoxicity resulting from the interaction of AN-9 with Adriamycin.

DNA = conditions: cited from earlier work
[4] = 4 μM [14C] Adriamycin, 500 μM AN-9 (1:125) added 2 hr after
[5] = 6 μM [14C]-Adriamycin 4 hr, AN-9 16 hr prior to Adriamycin

## CCCC(=O)OCOP(=O)(OCC)OCC [AN-7, Butyroyloxymethyldiethyl Phosphate]
[1]
  adduct levels compared to Adriamycin alone: enhanced adduct levels
  relative effectiveness in activating adduct formation: good activity

## CCCC(=O)OCOC(=O)C(C)(C)C [AN-9, Pivaloyloxymethyl Butyrate]
HL-60 cells
  histone acetylation: induce histone acetylation
  time after exposure at which basal level of acetylation is re-established: 6 h
[2]; 4 μM Adriamycin 4 hr, 100 μM AN-9 added shortly after Adriamycin, compared with simultaneous addition
  adduct/crosslinking levels: greatly enhanced levels of adducts
[2]; Adriamycin (6 μm) 4 hr, AN-9 (125 μM) administered 5-24 hr prior to Adriamycin
  enhancement of adduct levels: no enhancement of adduct levels
[2]
  level of DNA adducts (percentage of double stranded DNA): dramatic increases in the level of DNA adducts
[2]; barminomycin 0-20 nM, 12,500-fold excess of AN-9, added after or 2 hr before barminomycin
  effect on the ability of barminomycin to induce DNA crosslinks: no effect
[3]
  level of DNA adducts (percentage of double stranded DNA): dramatic increases in the level of DNA adducts
[1]
  adduct levels compared to Adriamycin alone: enhanced adduct levels
  relative effectiveness in activating adduct formation: most effective
[1]; 4 μM [14C] Adriamycin, 500 μM AN-9
  total Adriamycin added to cells incorporated into DNA adducts: approximately 5%
[1]; [4]
  adduct levels relative to the 1:20-1:25 ratio: approximately 10 fold
  potentiation of Adriamycin adduct levels: approximately 100 fold
[1]; 4 μM [14C] Adriamycin, AN-9 added 2 hr after, further 2 hr, Adriamycin:AN-9 1:20-1:25
  Adriamycin adducts: 10 adducts per 10 kb
[1]; 4 μM [14C] Adriamycin, AN-9 added 2 hr after, Adriamycin:AN9 1:1-1:5
  enhancement of adduct formation: poor
[1]; [5]
  levels of Adriamycin adducts: 1.7 /10 kb
  loss of adducts compared to Adriamycin alone: 40%
[1]; 6 μM [14C]-Adriamycin 4 hr, AN-9 added 2 hr after Adriamycin
  enhancement of adducts compared to Adriamycin alone: approximately 20 fold
[1]; 41M [14C]-Adriamycin 4 hr, 100 μM AN-9 2 hr after Adriamycin
  level of Adriamycin adducts: ~24 per 10 kb
[1]; 41M [14C]-Adriamycin 4 hr, 100 μM AN-9 2 hr prior to Adriamycin
  level of Adriamycin adducts: ~3.5 per 10 kb
[1]; 41M [14C]-Adriamycin 4 hr, 100 μM AN-9, vs Adriamycin alone
  potentiation of the level of Adriamycin adducts: up to 15 fold
[1]; 41M [14C]-Adriamycin 4 hr, 100 μM AN-9 simultaneously
  level of Adriamycin adducts: approximately 12 per 10 kb

## CCCC(=O)OC(C)OP(=O)(OCC)OCC (stereo not drawn) [AN-88, 1-Butyroyloxyethyldiethyl Phosphate]
[1]
  adduct levels compared to Adriamycin alone: reinforced the concept that it was the released formaldehyde which was solely responsible for increased adduct formation

## CCC(=O)OC(C)OC(=O)CC [AN-188, Ethylidene Dipropionate]
[1]
  adduct levels compared to Adriamycin alone: reinforced the concept that it was the released formaldehyde which was solely responsible for increased adduct formation

## COc1cccc2c1C(=O)c1c(O)c3c(c(O)c1C2=O)C[C@@](O)(C(=O)CO)C[C@@H]3O[C@H]1C[C@H](N)[C@H](O)[C@H](C)O1 [Adriamycin, reference compound]
IMR-32 cells
  Relative survival: 1.00 ± 0.12
DNA
  half-life of Adriamycin adducts: 5 to 40 h
[2]
  level of DNA adducts (percentage of double stranded DNA): no adducts were detected
[3]
  level of DNA adducts (percentage of double stranded DNA): no adducts were detected
[1]; 6 μM [14C]-Adriamycin alone 4 hr
  levels of Adriamycin adducts: 2.8 /10 kb
[1]; 41M [14C]-Adriamycin 4 hr, absence of AN-9
  level of Adriamycin adducts: approximately 1.5 per 10 kb

## CCCC(=O)O [Butyric acid, reference compound]
[1]; 6 μM [14C]-Adriamycin 4 hr, sodium butyrate (1 mM) 16 hr prior, 2 hr prior, simultaneously or 2 hr after
  increase in Adriamycin adduct levels: no significant increases in adduct levels

## C1N2CN3CN1CN(C2)C3 [hexamethylenetetramine, reference compound]
[2]; 15 μM Adriamycin, 4 hr later 0-2.5 mM hexamethylenetetramine, harvested after 8 hr
  facilitation of Adriamycin adduct formation: not as effective as AN-9
